Experimental data taken from the kinase profiling compilation of Christmann-Franck et al. (2016).

Tests used:
Assay in all cases: radiometric filter-binding kinase assay
[1] = biological target: MKNK2 (human) (UniProt Q9HBH9)
[2] = biological target: HIPK2 (human) (UniProt Q9H2X6)
[3] = biological target: BTK (human) (UniProt Q06187)
[4] = biological target: PRKCA (human) (UniProt P17252)
[5] = biological target: NTRK1 (human) (UniProt P04629)
[6] = biological target: CSNK1D (human) (UniProt P48730)
[7] = biological target: MAPK14 (human) (UniProt Q16539)
[8] = biological target: MAPK11 (human) (UniProt Q15759)
[9] = biological target: YES1 (human) (UniProt P07947)
[10] = biological target: AURKA (human) (UniProt O14965)
[11] = biological target: NEK2 (human) (UniProt P51955)
[12] = biological target: INSR (human) (UniProt P06213)
[13] = biological target: MAPK15 (human) (UniProt Q8TD08)
MAPK15 (human), sequence (Q8TD08 whole entry, looked up): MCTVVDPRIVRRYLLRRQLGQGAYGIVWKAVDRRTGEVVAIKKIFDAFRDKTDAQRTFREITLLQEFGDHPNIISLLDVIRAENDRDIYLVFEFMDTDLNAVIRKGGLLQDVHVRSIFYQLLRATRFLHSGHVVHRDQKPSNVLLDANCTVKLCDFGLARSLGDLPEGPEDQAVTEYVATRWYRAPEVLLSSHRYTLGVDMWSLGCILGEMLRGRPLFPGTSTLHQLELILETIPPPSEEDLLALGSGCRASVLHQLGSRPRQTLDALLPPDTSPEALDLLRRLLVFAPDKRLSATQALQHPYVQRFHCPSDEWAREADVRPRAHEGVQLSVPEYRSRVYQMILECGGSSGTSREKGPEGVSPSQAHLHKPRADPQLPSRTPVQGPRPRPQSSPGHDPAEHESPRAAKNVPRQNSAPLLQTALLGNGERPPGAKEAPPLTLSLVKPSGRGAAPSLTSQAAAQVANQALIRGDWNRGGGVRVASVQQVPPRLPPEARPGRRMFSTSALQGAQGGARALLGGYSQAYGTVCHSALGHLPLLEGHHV

[14] = biological target: RPS6KA5 KD1 KD2 (human) (UniProt O75582)
RPS6KA5 KD1 KD2 (human), sequence (O75582 whole entry, looked up): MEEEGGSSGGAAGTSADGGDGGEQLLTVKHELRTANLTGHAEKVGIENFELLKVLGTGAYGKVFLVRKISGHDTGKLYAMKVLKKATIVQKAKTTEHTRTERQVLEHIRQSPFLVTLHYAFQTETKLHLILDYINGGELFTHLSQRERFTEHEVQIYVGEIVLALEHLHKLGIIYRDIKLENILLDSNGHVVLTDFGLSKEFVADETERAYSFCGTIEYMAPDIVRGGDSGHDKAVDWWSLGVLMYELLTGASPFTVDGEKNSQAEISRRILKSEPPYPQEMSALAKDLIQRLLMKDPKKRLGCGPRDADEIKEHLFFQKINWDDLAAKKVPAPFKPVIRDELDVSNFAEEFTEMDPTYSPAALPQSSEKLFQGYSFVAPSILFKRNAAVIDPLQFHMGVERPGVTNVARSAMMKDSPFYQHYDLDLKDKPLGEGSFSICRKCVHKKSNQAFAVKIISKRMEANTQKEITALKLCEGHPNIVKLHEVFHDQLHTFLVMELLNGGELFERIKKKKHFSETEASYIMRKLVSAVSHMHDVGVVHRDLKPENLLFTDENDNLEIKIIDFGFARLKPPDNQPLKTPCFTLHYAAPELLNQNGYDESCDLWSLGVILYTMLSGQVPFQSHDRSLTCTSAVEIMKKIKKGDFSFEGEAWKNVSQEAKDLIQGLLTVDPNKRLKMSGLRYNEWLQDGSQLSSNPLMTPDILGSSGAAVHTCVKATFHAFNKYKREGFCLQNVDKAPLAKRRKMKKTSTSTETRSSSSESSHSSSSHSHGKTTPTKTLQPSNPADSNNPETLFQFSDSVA

[15] = biological target: INSRR (human) (UniProt P14616)
[16] = biological target: MAPK1 (human) (UniProt P28482)
[17] = biological target: STK11 CAB39 STRADA (human) (UniProt Q9Y376+Q7RTN6+Q15831)
[18] = biological target: RIPK2 (human) (UniProt O43353)
[19] = biological target: NEK6 (human) (UniProt Q9HC98)
NEK6 (human), sequence (Q9HC98 whole entry, looked up): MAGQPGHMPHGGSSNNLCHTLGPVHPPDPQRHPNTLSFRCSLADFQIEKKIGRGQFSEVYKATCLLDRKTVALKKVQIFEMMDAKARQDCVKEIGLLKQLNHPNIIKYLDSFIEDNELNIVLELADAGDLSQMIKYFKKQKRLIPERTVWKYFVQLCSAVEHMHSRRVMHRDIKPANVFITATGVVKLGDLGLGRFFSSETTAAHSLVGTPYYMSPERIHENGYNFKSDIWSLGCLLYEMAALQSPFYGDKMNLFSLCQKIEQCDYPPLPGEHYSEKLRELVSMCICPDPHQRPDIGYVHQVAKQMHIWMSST

[20] = biological target: JAK2 JH1 JH2 (human) (UniProt O60674)
[21] = biological target: RPS6KA1 KD1 KD2 (human) (UniProt Q15418)
[22] = biological target: SRPK1 (human) (UniProt Q96SB4)
[23] = biological target: CSNK2A1 (human) (UniProt P68400)
[24] = biological target: CLK2 (human) (UniProt P49760)
[25] = biological target: DYRK2 (human) (UniProt Q92630)
[26] = biological target: FLT1 (human) (UniProt P17948)
[27] = biological target: MAPKAPK3 (human) (UniProt Q16644)
[28] = biological target: IRAK4 (human) (UniProt Q9NWZ3)
[29] = biological target: HIPK1 (human) (UniProt Q86Z02)
HIPK1 (human), sequence (Q86Z02 whole entry, looked up): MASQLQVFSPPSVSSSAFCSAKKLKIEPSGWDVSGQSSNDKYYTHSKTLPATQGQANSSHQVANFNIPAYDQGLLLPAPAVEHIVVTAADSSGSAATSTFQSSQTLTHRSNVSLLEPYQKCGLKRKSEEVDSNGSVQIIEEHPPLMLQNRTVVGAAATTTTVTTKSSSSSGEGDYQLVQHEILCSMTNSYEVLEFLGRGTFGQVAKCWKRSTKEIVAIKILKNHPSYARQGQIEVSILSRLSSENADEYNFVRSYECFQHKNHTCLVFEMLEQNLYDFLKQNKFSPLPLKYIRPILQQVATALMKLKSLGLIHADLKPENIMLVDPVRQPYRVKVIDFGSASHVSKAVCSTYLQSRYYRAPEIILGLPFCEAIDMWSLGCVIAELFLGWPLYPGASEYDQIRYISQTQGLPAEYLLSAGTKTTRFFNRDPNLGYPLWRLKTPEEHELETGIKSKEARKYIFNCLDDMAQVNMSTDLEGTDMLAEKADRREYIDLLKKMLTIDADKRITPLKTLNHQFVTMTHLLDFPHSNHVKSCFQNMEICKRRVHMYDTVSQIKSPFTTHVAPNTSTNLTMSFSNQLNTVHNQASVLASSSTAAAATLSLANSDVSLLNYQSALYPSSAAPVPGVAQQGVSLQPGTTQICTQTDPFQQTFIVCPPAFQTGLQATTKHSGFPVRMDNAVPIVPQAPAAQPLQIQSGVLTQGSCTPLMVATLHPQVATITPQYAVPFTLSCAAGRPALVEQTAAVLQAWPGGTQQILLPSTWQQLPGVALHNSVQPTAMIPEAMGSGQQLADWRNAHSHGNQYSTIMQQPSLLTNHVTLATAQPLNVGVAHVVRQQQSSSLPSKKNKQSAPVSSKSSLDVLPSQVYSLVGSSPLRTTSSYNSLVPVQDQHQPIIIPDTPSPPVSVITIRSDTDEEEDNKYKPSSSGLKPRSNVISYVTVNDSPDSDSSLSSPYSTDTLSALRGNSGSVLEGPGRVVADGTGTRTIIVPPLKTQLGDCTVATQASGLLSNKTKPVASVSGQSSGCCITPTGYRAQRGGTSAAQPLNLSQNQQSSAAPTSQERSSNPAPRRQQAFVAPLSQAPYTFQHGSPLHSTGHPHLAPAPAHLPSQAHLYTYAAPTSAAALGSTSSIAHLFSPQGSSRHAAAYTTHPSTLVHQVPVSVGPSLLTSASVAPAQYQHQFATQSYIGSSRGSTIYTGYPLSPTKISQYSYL

[30] = tested on: RPS6KB1 (human), P23443 [T412E]
[31] = tested on: AKT2 (human), P31751 [S474D]
AKT2 (human), P31751 [S474D], sequence (P31751 whole entry S474D, looked up): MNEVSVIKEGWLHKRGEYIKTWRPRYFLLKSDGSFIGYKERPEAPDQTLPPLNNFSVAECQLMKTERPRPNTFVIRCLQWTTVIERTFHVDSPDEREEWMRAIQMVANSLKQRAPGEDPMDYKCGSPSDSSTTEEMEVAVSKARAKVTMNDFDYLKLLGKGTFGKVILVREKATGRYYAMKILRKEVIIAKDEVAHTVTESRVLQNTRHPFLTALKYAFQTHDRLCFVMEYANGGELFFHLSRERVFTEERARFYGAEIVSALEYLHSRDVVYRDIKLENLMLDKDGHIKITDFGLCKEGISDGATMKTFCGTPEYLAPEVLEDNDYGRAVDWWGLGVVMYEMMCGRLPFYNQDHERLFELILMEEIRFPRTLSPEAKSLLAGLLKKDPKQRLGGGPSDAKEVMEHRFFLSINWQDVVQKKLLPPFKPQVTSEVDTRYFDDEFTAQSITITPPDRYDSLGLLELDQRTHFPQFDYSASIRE

[32] = biological target: MAP3K1 (human) (UniProt Q13233)
[33] = biological target: MAP3K9 (human) (UniProt P80192)
[34] = biological target: MARK4 (human) (UniProt Q96L34)
[35] = biological target: MARK3 (human) (UniProt P27448)

MKNK2 (human), sequence (Q9HBH9 whole entry, looked up): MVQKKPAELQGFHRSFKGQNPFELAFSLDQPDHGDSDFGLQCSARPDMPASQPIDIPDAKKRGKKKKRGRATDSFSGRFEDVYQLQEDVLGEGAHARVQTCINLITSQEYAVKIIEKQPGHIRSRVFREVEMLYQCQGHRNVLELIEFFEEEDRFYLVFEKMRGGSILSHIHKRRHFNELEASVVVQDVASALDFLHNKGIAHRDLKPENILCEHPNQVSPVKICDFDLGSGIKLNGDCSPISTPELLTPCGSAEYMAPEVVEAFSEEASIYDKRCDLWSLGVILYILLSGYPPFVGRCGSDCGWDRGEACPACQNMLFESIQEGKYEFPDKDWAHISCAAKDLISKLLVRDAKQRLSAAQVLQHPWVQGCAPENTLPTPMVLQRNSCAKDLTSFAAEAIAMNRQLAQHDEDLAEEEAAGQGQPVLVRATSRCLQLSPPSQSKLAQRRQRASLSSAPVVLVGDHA
HIPK2 (human), sequence (Q9H2X6 whole entry, looked up): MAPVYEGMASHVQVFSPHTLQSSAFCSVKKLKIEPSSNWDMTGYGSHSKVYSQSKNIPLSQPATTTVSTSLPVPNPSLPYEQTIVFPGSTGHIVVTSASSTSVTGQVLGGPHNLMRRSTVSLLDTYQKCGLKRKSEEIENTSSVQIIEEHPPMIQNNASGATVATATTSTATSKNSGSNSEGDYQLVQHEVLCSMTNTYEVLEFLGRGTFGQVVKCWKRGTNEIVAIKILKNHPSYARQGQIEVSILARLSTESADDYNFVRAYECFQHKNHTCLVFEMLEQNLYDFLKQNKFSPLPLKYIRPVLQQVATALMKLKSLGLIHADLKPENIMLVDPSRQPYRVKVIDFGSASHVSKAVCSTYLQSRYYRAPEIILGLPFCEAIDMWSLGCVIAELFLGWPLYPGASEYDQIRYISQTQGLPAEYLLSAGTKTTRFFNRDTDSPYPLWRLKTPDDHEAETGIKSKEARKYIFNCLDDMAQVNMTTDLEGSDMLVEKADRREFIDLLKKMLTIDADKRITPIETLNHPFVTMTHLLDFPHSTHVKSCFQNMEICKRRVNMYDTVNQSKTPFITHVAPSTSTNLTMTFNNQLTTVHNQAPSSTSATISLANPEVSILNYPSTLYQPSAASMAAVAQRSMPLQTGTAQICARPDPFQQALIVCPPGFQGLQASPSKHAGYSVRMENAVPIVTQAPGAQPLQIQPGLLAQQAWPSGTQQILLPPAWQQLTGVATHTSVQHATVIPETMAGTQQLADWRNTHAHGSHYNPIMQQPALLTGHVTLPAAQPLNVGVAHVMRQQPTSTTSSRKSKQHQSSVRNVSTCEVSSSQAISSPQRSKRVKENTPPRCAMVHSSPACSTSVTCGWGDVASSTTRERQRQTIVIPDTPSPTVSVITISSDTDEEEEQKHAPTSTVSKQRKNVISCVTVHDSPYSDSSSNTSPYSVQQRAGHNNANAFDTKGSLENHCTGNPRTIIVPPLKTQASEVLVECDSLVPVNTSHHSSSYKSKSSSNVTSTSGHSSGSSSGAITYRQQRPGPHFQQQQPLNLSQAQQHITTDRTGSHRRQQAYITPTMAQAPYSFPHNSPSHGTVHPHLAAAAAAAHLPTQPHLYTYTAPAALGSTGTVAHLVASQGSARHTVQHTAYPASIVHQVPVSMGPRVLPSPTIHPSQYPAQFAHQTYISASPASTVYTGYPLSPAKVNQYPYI

residual activity ([1]; compound 0.01 µM): 91%
residual activity ([1]; compound 1.0 µM): 80%
residual activity ([1]; compound 10.0 µM): 94%
residual activity ([2]; compound 0.01 µM): 119%
residual activity ([2]; compound 0.1 µM): 124%
residual activity ([2]; compound 1.0 µM): 95%
residual activity ([2]; compound 10.0 µM): 113%
residual activity ([3]; compound 0.01 µM): 126%
residual activity ([3]; compound 0.1 µM): 121%
residual activity ([3]; compound 1.0 µM): 97%
residual activity ([3]; compound 10.0 µM): 90%
residual activity ([4]; compound 0.01 µM): 104%
residual activity ([4]; compound 0.1 µM): 105%
residual activity ([4]; compound 1.0 µM): 98%
residual activity ([4]; compound 10.0 µM): 96%
residual activity ([5]; compound 1.0 µM): 94%
residual activity ([5]; compound 10.0 µM): 84%
residual activity ([6]; compound 0.01 µM): 100%
residual activity ([6]; compound 0.1 µM): 108%
residual activity ([6]; compound 1.0 µM): 96%
residual activity ([6]; compound 10.0 µM): 88%
residual activity ([7]; compound 0.01 µM): 105%
residual activity ([7]; compound 0.1 µM): 109%
residual activity ([7]; compound 1.0 µM): 100%
residual activity ([7]; compound 10.0 µM): 99%
residual activity ([8]; compound 0.01 µM): 113%
residual activity ([8]; compound 0.1 µM): 129%
residual activity ([8]; compound 1.0 µM): 105%
residual activity ([8]; compound 10.0 µM): 109%
residual activity ([9]; compound 0.01 µM): 122%
residual activity ([9]; compound 0.1 µM): 119%
residual activity ([9]; compound 1.0 µM): 106%
residual activity ([9]; compound 10.0 µM): 98%
residual activity ([10]; compound 0.01 µM): 112%
residual activity ([10]; compound 0.1 µM): 115%
residual activity ([10]; compound 1.0 µM): 98%
residual activity ([10]; compound 10.0 µM): 89%
residual activity ([11]; compound 0.01 µM): 118%
residual activity ([11]; compound 0.1 µM): 118%
residual activity ([11]; compound 1.0 µM): 94%
residual activity ([11]; compound 10.0 µM): 91%
residual activity ([12]; compound 0.01 µM): 101%
residual activity ([12]; compound 0.1 µM): 103%
residual activity ([12]; compound 1.0 µM): 101%
residual activity ([12]; compound 10.0 µM): 89%
residual activity ([14]; compound 0.01 µM): 102%
residual activity ([14]; compound 0.1 µM): 100%
residual activity ([14]; compound 1.0 µM): 95%
residual activity ([14]; compound 10.0 µM): 66%
residual activity ([15]; compound 0.01 µM): 111%
residual activity ([15]; compound 0.1 µM): 111%
residual activity ([15]; compound 1.0 µM): 117%
residual activity ([16]; compound 0.01 µM): 117%
residual activity ([16]; compound 0.1 µM): 111%
residual activity ([16]; compound 1.0 µM): 107%
residual activity ([16]; compound 10.0 µM): 109%
residual activity ([17]; compound 0.01 µM): 104%
residual activity ([17]; compound 0.1 µM): 124%
residual activity ([17]; compound 1.0 µM): 110%
residual activity ([17]; compound 10.0 µM): 103%
residual activity ([18]; compound 0.01 µM): 110%
residual activity ([18]; compound 0.1 µM): 114%
residual activity ([18]; compound 1.0 µM): 116%
residual activity ([18]; compound 10.0 µM): 100%
residual activity ([19]; compound 0.01 µM): 98%
residual activity ([19]; compound 0.1 µM): 101%
residual activity ([19]; compound 1.0 µM): 84%
residual activity ([19]; compound 10.0 µM): 79%
residual activity ([20]; compound 1.0 µM): 108%
residual activity ([20]; compound 10.0 µM): 99%
residual activity ([21]; compound 0.01 µM): 123%
residual activity ([21]; compound 0.1 µM): 113%
residual activity ([21]; compound 1.0 µM): 86%
residual activity ([21]; compound 10.0 µM): 40%
residual activity ([22]; compound 0.01 µM): 106%
residual activity ([22]; compound 0.1 µM): 120%
residual activity ([22]; compound 1.0 µM): 104%
residual activity ([22]; compound 10.0 µM): 90%
residual activity ([23]; compound 0.01 µM): 103%
residual activity ([23]; compound 0.1 µM): 104%
residual activity ([23]; compound 1.0 µM): 91%
residual activity ([23]; compound 10.0 µM): 111%
residual activity ([24]; compound 1.0 µM): 98%
residual activity ([24]; compound 10.0 µM): 88%
residual activity ([25]; compound 0.01 µM): 100%
residual activity ([25]; compound 0.1 µM): 108%
residual activity ([25]; compound 1.0 µM): 97%
residual activity ([26]; compound 0.01 µM): 98%
residual activity ([26]; compound 0.1 µM): 108%
residual activity ([26]; compound 1.0 µM): 89%
residual activity ([26]; compound 10.0 µM): 64%
residual activity ([27]; compound 0.01 µM): 112%
residual activity ([27]; compound 0.1 µM): 112%
residual activity ([27]; compound 1.0 µM): 91%
residual activity ([27]; compound 10.0 µM): 68%
residual activity ([28]; compound 0.01 µM): 109%
residual activity ([28]; compound 0.1 µM): 112%
residual activity ([28]; compound 1.0 µM): 92%
residual activity ([28]; compound 10.0 µM): 99%
residual activity ([29]; compound 0.01 µM): 102%
residual activity ([29]; compound 0.1 µM): 105%
residual activity ([29]; compound 1.0 µM): 94%
residual activity ([29]; compound 10.0 µM): 112%
residual activity ([30]; compound 0.01 µM): 111%
residual activity ([30]; compound 0.1 µM): 106%
residual activity ([30]; compound 1.0 µM): 108%
residual activity ([30]; compound 10.0 µM): 81%
residual activity ([31]; compound 0.01 µM): 125%
residual activity ([31]; compound 0.1 µM): 118%
residual activity ([31]; compound 1.0 µM): 107%
residual activity ([31]; compound 10.0 µM): 56%
residual activity ([32]; compound 1.0 µM): 87%
residual activity ([32]; compound 10.0 µM): 104%
residual activity ([33]; compound 0.01 µM): 110%
residual activity ([33]; compound 0.1 µM): 111%
residual activity ([33]; compound 1.0 µM): 93%
residual activity ([33]; compound 10.0 µM): 78%
residual activity ([34]; compound 0.01 µM): 106%
residual activity ([34]; compound 0.1 µM): 114%
residual activity ([34]; compound 1.0 µM): 99%
residual activity ([34]; compound 10.0 µM): 103%
residual activity ([35]; compound 0.01 µM): 113%
residual activity ([35]; compound 0.1 µM): 109%
residual activity ([35]; compound 1.0 µM): 88%
residual activity ([35]; compound 10.0 µM): 87%
SMILES: CNc1nc(-c2ccc3c(N)n[nH]c3c2)cc(N2C[C@@H](C(=O)NC3CCCCC3)CC[C@H]2C)n1
residual activity ([13]; compound 0.01 µM): 106%
residual activity ([13]; compound 0.1 µM): 117%
residual activity ([13]; compound 1.0 µM): 99%
residual activity ([13]; compound 10.0 µM): 83%
